Results published in PubChem BioAssay AID256 (DTP/NCI, 2004).
Toxic doses and inconclusive results are not listed.

Test system: CD2F1 mice, L1210 leukemia ip, survival T/C
Test: NCI In Vivo Anticancer Drug Screen. Data for tumor model L1210 Leukemia (intraperitoneal) in CD2F1 (CDF1) mice
Conditions: higher = longer survival
In short: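 Read-out first: treated-group measurement over vehicle-control measurement, expressed as a ratio. Animals bore a transplanted tumor line and were dosed with compound or vehicle.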

SMILES: COc1cc([C@@H]2c3cc4c(cc3[C@@H](OC3OC5COC(C)OC5C(O)C3O)[C@H]3COC(=O)[C@H]23)OCO4)cc(OC)c1O (stereo partly drawn)
- T/C (endpoint: mean survival time, dose: 0.5 mg/kg/injection, schedule: Q03HX024 (ip), vehicle: saline): 165 % of control
- T/C (endpoint: mean survival time, dose: 1.0 mg/kg/injection, schedule: Q03HX024 (ip), vehicle: saline): 360 % of control
- T/C (endpoint: mean survival time, dose: 2.0 mg/kg/injection, schedule: Q01DX009 (ip), vehicle: saline): 151 % of control
- T/C (endpoint: mean survival time, dose: 2.0 mg/kg/injection, schedule: Q03HX024 (ip), vehicle: saline): 124 % of control
- T/C (endpoint: mean survival time, dose: 4.0 mg/kg/injection, schedule: Q01DX009 (ip), vehicle: saline): 246 % of control
- T/C (endpoint: mean survival time, dose: 8.0 mg/kg/injection, schedule: Q01DX009 (ip), vehicle: saline): 111 % of control
- T/C (endpoint: mean survival time, dose: 8.0 mg/kg/injection, schedule: Q04DX003 (ip), vehicle: saline): 181 % of control
- T/C (endpoint: mean survival time, dose: 16.0 mg/kg/injection, schedule: Q01DX009 (ip), vehicle: saline): 87 % of control
- T/C (endpoint: mean survival time, dose: 16.0 mg/kg/injection, schedule: Q04DX003 (ip), vehicle: saline): 289 % of control
- T/C (endpoint: mean survival time, dose: 32.0 mg/kg/injection, schedule: Q04DX003 (ip), vehicle: saline): 542 % of control
- T/C (endpoint: median survival time, dose: 1.0 mg/kg/injection, schedule: Q03HX008 (ip), vehicle: other): 162 % of control
- T/C (endpoint: median survival time, dose: 1.0 mg/kg/injection, schedule: Q03HX016 (ip), vehicle: other): 175 % of control
- T/C (endpoint: median survival time, dose: 1.0 mg/kg/injection, schedule: Q03HX024 (ip), vehicle: other): 218 % of control
- T/C (endpoint: median survival time, dose: 2.0 mg/kg/injection, schedule: Q01DX009 (ip), vehicle: other): 175 % of control
- T/C (endpoint: median survival time, dose: 2.0 mg/kg/injection, schedule: Q01DX009 (ip), vehicle: saline): 152 % of control
- T/C (endpoint: median survival time, dose: 2.0 mg/kg/injection, schedule: Q01DX009 (sc), vehicle: other): 150 % of control
- T/C (endpoint: median survival time, dose: 2.0 mg/kg/injection, schedule: Q03HX008 (ip), vehicle: other): 175 % of control
- T/C (endpoint: median survival time, dose: 2.0 mg/kg/injection, schedule: Q03HX016 (ip), vehicle: other): 212 % of control
- T/C (endpoint: median survival time, dose: 2.0 mg/kg/injection, schedule: Q03HX024 (ip), vehicle: other): 206 % of control
- T/C (endpoint: median survival time, dose: 4.0 mg/kg/injection, schedule: Q01DX009 (ip), vehicle: other): 218 % of control
- T/C (endpoint: median survival time, dose: 4.0 mg/kg/injection, schedule: Q01DX009 (ip), vehicle: saline): 195 % of control
- T/C (endpoint: median survival time, dose: 4.0 mg/kg/injection, schedule: Q01DX009 (oral), vehicle: Klucel (hydroxypropylcellulose) (HPC)): 105 % of control
- T/C (endpoint: median survival time, dose: 4.0 mg/kg/injection, schedule: Q01DX009 (sc), vehicle: other): 168 % of control
- T/C (endpoint: median survival time, dose: 4.0 mg/kg/injection, schedule: Q03HX008 (ip), vehicle: other): 181 % of control
- T/C (endpoint: median survival time, dose: 4.0 mg/kg/injection, schedule: Q03HX008 (oral), vehicle: Klucel (hydroxypropylcellulose) (HPC)): 111 % of control
- T/C (endpoint: median survival time, dose: 4.0 mg/kg/injection, schedule: Q03HX016 (ip), vehicle: other): 187 % of control
- T/C (endpoint: median survival time, dose: 4.0 mg/kg/injection, schedule: Q03HX016 (oral), vehicle: Klucel (hydroxypropylcellulose) (HPC)): 100 % of control
- T/C (endpoint: median survival time, dose: 4.0 mg/kg/injection, schedule: Q03HX024 (ip), vehicle: other): 118 % of control
- T/C (endpoint: median survival time, dose: 4.0 mg/kg/injection, schedule: Q03HX024 (oral), vehicle: Klucel (hydroxypropylcellulose) (HPC)): 88 % of control
- T/C (endpoint: median survival time, dose: 8.0 mg/kg/injection, schedule: Q01DX001 (ip), vehicle: other): 162 % of control
- T/C (endpoint: median survival time, dose: 8.0 mg/kg/injection, schedule: Q01DX001 (sc), vehicle: other): 112 % of control
- T/C (endpoint: median survival time, dose: 8.0 mg/kg/injection, schedule: Q01DX009 (ip), vehicle: saline): 220 % of control
- T/C (endpoint: median survival time, dose: 8.0 mg/kg/injection, schedule: Q01DX009 (oral), vehicle: Klucel (hydroxypropylcellulose) (HPC)): 116 % of control
- T/C (endpoint: median survival time, dose: 8.0 mg/kg/injection, schedule: Q01DX009 (sc), vehicle: other): 118 % of control
- T/C (endpoint: median survival time, dose: 8.0 mg/kg/injection, schedule: Q03HX008 (ip), vehicle: other): 87 % of control
- T/C (endpoint: median survival time, dose: 8.0 mg/kg/injection, schedule: Q03HX008 (oral), vehicle: Klucel (hydroxypropylcellulose) (HPC)): 122 % of control
- T/C (endpoint: median survival time, dose: 8.0 mg/kg/injection, schedule: Q03HX016 (oral), vehicle: Klucel (hydroxypropylcellulose) (HPC)): 100 % of control
- T/C (endpoint: median survival time, dose: 8.0 mg/kg/injection, schedule: Q03HX024 (ip), vehicle: other): 112 % of control
- T/C (endpoint: median survival time, dose: 8.0 mg/kg/injection, schedule: Q03HX024 (oral), vehicle: Klucel (hydroxypropylcellulose) (HPC)): 88 % of control
- T/C (endpoint: median survival time, dose: 8.0 mg/kg/injection, schedule: Q04DX003 (ip), vehicle: other): 193 % of control
- T/C (endpoint: median survival time, dose: 8.0 mg/kg/injection, schedule: Q08DX002 (ip), vehicle: other): 168 % of control
- T/C (endpoint: median survival time, dose: 16.0 mg/kg/injection, schedule: Q01DX001 (ip), vehicle: other): 162 % of control
- T/C (endpoint: median survival time, dose: 16.0 mg/kg/injection, schedule: Q01DX009 (ip), vehicle: other): 100 % of control
- T/C (endpoint: median survival time, dose: 16.0 mg/kg/injection, schedule: Q01DX009 (oral), vehicle: Klucel (hydroxypropylcellulose) (HPC)): 122 % of control
- T/C (endpoint: median survival time, dose: 16.0 mg/kg/injection, schedule: Q01DX009 (sc), vehicle: other): 93 % of control
- T/C (endpoint: median survival time, dose: 16.0 mg/kg/injection, schedule: Q03HX008 (oral), vehicle: Klucel (hydroxypropylcellulose) (HPC)): 111 % of control
- T/C (endpoint: median survival time, dose: 16.0 mg/kg/injection, schedule: Q03HX016 (oral), vehicle: Klucel (hydroxypropylcellulose) (HPC)): 111 % of control
- T/C (endpoint: median survival time, dose: 16.0 mg/kg/injection, schedule: Q03HX024 (oral), vehicle: Klucel (hydroxypropylcellulose) (HPC)): 94 % of control
